Key:
PI-3 kinase γ [1] = biological target: T1, PI-3 kinase γ (Homo sapiens, UniProt P48736); experiment: PI3Kγ inhibitory activity, PI3-kinase HTRF assay (inhibition ratio); format: biochemical; details: 0.5 h; for inhibition at 50 µM: compound at 50 μM
Method in brief: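 Single-concentration inhibition ratio (50 or 10 μmol/L compound) versus no-compound (100%) and no-enzyme (0%) wells. Reaction: PI-3 kinase γ, PIP2, ATP, MgCl2/DTT, 30 min at RT after 10 min preincubation. Read-out: HTRF 665/620 nm after 18 h detection.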

CYP1A2 = biological target: T2, CYP1A2 (Homo sapiens, UniProt P05177); experiment: CYP inhibition test, pooled human liver microsome, CYP1A2; format: in vitro ADME; details: O-de-ethylation of 7-ethoxyresorufin
T2 construct: enzyme: pooled human liver microsome 0.2 mg protein/mL; from tissue; host or cells: pooled human liver microsome
T2 sequence (P05177 1-516): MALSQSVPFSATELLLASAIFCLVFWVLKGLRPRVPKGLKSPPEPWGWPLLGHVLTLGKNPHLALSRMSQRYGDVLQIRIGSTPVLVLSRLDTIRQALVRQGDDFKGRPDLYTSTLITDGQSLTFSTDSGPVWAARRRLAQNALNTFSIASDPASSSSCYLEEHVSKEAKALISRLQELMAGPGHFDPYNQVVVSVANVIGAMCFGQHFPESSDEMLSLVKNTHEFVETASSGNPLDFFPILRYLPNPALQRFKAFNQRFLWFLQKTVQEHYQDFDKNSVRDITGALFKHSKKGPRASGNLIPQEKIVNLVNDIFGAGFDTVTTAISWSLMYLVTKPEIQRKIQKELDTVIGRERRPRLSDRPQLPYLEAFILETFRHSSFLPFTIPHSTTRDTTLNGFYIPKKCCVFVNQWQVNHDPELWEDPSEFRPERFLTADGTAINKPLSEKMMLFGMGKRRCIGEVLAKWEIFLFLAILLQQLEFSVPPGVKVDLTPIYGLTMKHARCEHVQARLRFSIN
Source text: (§1) O-de-ethylation of 7-ethoxyresorufin (CYP1A2), methyl-hydroxylation of tolbutamide (CYP2C9), 4′-hydroxylation of mephenyloin (CYP2C19), O-demethylation of dextromethorphan (CYP2D6), and hydroxylation of terfenadine (CYP3A4), which are typical substrate for metabolic reactions of human main CYP5 molecular species (CYP1A2, 2C9, 2C19, 2D6, and 3A4), were adopted as indexes.
(§2) The reaction conditions are as follows: substrate: 0.5 μmol/L of ethoxyresorufin (CYP1A2), 100 μmol/L of tolbutamide (CYP2C9), […] of S-mephenyloin (CYP2C19), 5 μmol/L of dextromethorphan (CYP2D6), and 1 μmol/L of terfenadine (CYP3A4); reaction time; 15 minutes; reaction temperature: 37° C.; enzyme: pooled human liver microsome 0.2 mg protein/mL; test drug concentration: 1, 5, 10, and 20 μmol/L (4 points).
(§3) In a 96-well plate, as a reaction solution, five kinds of substrates, a human liver microsome, and a test drug were added to 50 mmol/L Hepes buffer solution in the aforementioned ratio. A coenzyme NADPH was added to start a metabolic reaction, which is an index. After reacting at 37° C. for 15 minutes, a solution of methanol/acetonitrile (1/1 (v/v)) was added to quench the reaction. After centrifugation at 3000 rpm for 15 minutes, resorufin (CYP1A2 metabolite) in the supernatant was quantitated with a fluorescence multilabel counter, and hydroxylated tolbutamide (CYP2C9 metabolite), 4′-hydroxylated mephenyloin (CYP2C19 metabolite), […], terfenadine in alcohol form (CYP3A4 metabolite) were quantitated with LC/MS/MS.
(§4) The case wherein only DMSO (a solvent which dissolved a drug) was added to a reaction system was defined as a control (100%). When a test drug solution was added, the remaining activity (%) at each concentration was calculated, and then IC50 was calculated with a concentration and an inhibition ratio by an inverse estimation using a logistic model.

CYP2C9 = biological target: T3, CYP2C9 (Homo sapiens, UniProt P11712); experiment: CYP inhibition test, pooled human liver microsome, CYP2C9; format: in vitro ADME; details: methyl-hydroxylation of tolbutamide
T3 construct: enzyme: pooled human liver microsome 0.2 mg protein/mL; from tissue; host or cells: pooled human liver microsome
T3 sequence (P11712 whole entry): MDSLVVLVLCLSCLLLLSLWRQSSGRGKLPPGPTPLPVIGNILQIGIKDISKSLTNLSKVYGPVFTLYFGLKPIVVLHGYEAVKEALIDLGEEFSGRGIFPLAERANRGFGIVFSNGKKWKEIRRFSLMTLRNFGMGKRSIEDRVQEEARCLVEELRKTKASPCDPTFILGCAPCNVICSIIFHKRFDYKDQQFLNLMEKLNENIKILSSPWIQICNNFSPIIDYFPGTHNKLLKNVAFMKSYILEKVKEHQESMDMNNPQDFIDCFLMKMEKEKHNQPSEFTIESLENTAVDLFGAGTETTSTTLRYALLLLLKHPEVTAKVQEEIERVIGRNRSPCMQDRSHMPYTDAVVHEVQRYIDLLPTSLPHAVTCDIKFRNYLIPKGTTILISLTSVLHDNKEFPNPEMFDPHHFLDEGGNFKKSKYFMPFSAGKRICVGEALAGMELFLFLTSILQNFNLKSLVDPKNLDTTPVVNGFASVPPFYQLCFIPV
Source text: as §1, §2, §3, §4

CYP2C19 = biological target: T4, CYP2C19 (Homo sapiens, UniProt P33261); experiment: CYP inhibition test, pooled human liver microsome, CYP2C19; format: in vitro ADME; details: 4′-hydroxylation of mephenyloin
T4 construct: enzyme: pooled human liver microsome 0.2 mg protein/mL; from tissue; host or cells: pooled human liver microsome
T4 sequence (P33261 whole entry): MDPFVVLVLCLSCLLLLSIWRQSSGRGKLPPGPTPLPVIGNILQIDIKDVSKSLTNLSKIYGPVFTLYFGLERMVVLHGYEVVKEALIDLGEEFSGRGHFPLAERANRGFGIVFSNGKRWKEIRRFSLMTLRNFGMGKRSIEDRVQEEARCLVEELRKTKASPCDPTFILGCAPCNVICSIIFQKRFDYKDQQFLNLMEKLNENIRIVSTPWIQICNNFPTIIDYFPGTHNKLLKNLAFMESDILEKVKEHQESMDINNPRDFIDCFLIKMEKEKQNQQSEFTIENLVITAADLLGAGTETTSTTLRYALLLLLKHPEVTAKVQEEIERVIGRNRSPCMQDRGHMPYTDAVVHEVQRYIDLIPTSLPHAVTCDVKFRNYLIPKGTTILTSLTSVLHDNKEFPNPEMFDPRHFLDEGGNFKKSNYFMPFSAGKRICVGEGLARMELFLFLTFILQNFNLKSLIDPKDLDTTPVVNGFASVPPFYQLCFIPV
Source text: as §1, §2, §3, §4

CYP2D6 = biological target: T5, CYP2D6 (Homo sapiens, UniProt P10635); experiment: CYP inhibition test, pooled human liver microsome, CYP2D6; format: in vitro ADME; details: O-demethylation of dextromethorphan
T5 construct: enzyme: pooled human liver microsome 0.2 mg protein/mL; from tissue; host or cells: pooled human liver microsome
T5 sequence (P10635 whole entry): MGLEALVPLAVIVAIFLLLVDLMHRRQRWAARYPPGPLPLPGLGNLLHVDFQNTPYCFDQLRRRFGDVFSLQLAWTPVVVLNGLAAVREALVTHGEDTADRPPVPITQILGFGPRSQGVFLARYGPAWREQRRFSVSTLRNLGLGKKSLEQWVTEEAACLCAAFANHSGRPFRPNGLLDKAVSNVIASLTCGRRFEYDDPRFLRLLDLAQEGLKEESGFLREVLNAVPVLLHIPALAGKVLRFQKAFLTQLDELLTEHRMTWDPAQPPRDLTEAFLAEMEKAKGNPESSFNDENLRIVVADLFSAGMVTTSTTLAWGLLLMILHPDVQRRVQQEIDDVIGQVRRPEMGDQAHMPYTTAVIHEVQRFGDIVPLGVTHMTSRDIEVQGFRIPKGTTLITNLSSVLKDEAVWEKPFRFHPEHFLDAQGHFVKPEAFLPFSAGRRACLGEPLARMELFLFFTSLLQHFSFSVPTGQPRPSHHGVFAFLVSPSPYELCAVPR
Source text: as §1, §2, §3, §4

CYP3A4 = biological target: T6, CYP3A4 (Homo sapiens, UniProt P08684); experiment: CYP inhibition test, pooled human liver microsome, CYP3A4; format: in vitro ADME; details: hydroxylation of terfenadine
T6 construct: enzyme: pooled human liver microsome 0.2 mg protein/mL; from tissue; host or cells: pooled human liver microsome
T6 sequence (P08684 whole entry): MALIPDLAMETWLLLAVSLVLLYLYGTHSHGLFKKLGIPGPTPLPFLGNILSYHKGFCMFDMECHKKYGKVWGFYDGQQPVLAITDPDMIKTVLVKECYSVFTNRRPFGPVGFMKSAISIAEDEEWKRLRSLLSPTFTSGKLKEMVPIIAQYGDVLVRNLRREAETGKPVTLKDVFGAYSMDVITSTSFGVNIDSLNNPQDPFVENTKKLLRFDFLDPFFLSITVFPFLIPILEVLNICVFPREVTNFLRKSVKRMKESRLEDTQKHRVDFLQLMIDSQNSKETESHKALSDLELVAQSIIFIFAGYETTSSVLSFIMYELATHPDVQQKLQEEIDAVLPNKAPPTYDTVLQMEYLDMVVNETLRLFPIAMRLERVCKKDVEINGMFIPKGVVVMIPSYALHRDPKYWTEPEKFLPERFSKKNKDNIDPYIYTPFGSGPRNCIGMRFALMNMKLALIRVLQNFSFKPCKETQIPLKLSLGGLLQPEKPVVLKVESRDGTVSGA
Source text: as §1, §2, §3, §4

Solubility test = format: physicochemical; details: kinetic from dmso stock; artificial intestinal juice pH 6.8, 1% DMSO, 25° C. for 16 hours
Method in brief: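 Kinetic solubility with 1% DMSO: compound from 10 mmol/L DMSO stock spiked into pH 6.8 phosphate artificial intestinal juice, held 16 h at 25 °C, then suction-filtered. Filtrate diluted twofold in methanol/water (1/1) and quantified by HPLC or LC/MS/MS via absolute calibration.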

[2] = biological target: T7, human ether-a-go-go related gene (hERG) channel (Homo sapiens, UniProt Q12809); experiment: hERG test, whole-cell patch-clamp; format: cell-based; details: HEK293 cell expressing hERG; applied for 10 minutes; concentration not given
T7 construct: expressed in transfected cells; host or cells: HEK293
T7 sequence (Q12809 whole entry): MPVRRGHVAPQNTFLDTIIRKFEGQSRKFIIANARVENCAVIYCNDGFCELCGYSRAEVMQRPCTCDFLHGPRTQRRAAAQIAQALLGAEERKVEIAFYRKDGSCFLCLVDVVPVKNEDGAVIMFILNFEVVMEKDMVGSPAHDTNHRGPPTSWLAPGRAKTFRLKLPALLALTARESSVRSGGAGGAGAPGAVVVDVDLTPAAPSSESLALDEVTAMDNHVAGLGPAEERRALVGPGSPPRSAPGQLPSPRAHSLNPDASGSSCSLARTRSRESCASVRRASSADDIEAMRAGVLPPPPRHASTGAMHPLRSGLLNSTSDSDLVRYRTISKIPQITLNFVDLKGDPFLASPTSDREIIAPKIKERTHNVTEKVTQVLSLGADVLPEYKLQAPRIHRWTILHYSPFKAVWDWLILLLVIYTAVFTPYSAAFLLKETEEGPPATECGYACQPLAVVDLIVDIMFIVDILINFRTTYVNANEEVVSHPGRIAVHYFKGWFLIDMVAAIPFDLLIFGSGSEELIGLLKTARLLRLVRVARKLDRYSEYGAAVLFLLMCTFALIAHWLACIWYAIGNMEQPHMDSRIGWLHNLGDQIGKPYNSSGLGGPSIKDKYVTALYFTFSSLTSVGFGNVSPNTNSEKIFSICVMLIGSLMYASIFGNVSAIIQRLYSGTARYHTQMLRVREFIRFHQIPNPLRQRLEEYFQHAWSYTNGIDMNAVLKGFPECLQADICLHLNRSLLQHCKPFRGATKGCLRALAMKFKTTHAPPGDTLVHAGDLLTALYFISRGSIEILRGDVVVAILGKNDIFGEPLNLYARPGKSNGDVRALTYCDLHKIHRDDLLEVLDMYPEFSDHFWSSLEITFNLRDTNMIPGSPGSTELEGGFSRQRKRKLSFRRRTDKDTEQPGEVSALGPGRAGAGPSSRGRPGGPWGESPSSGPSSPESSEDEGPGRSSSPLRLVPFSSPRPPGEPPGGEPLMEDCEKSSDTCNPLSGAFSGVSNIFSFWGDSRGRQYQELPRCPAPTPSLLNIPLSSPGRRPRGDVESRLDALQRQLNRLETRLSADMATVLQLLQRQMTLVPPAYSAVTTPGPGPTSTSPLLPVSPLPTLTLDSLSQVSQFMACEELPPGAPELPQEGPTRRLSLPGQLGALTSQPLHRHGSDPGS
Source text: For the purpose of risk evaluation of QT interval extension of electrocardiogram, the activity on delayed rectification K^+ current (IKr), which plays an important role in a cardiac ventricle repolarization process, was examined using the HEK293 cell that was made to express human ether-a-go-go related gene (hERG) channel.
Using an automatic patch-clamp system (PatchXpress 7000A, Axon Instruments Inc.), by a whole-cell patch-clamp method, after the cell was maintained at a membrane potential of −80 mV, IKr induced upon applying depolarizing stimulation of +50 mV for 2 seconds and further applying repolarizing stimulation of −50 mV for 2 seconds was recorded. After generated electric current became stable, a test substance dissolved at an intended concentration in extracellular fluid (137 mmol/L NaCl, 4 mmol/L KCl, 1.8 mmol/L CaCl2.2H2O, 1 mmol/L MgCl2.6H2O, 10 mmol/L glucose, 10 mmol/L HEPES (4-(2-hydroxyethyl)-1-piperazineethanesulfonic acid), pH=7.4) was applied to the cell for 10 minutes under room temperature condition. From the obtained IKr, the absolute value of the maximum tail current was measured using analysis software (DataXpress ver. 1, Molecular Devices Corporation) and the value of the electric current in a maintained membrane potential as baseline. Moreover, an inhibition ratio for the maximum tail current prior to the application of the test substance was calculated and then compared with a group of media-application (0.1% dimethylsulfoxide solution) to evaluate influence of the test substance on IKr.

[3] = system: Salmonella typhimurium TA98 line, TA100 line; experiment: FAT test (mutagenicity); parameters: key: When the mutagenicity is negative, the compound is shown as (−); When positive, the compound is shown as (+); details: TA98 and TA100 lines; non-metabolism-activation and metabolism-activation conditions
Method: 20 μL of Salmonella enterica subsp. typhimurium (Salmonella typhimurium TA98 line, TA100 line) cryopreserved was inoculated to 10 mL of liquid nutrient medium (2.5% Oxoid nutrient broth No. 2) and then precultured at 37° C. for 10 hours with shaking. Regarding TA98 line, after 9 mL of a bacterial suspension was centrifuged (2000×g, 10 minutes) to remove the culture solution, the bacteria was suspended in 9 mL of Micro F buffer solution (K2HPO4: 3.5 g/L, KH2PO4: 1 g/L, (NH4)2SO4: 1 g/L, tri-sodium citric acid dihydrate: 0.25 g/L, MgSO4.7H2O: 0.1 g/L), and then added to 110 mL of Exposure media (Micro F buffer solution containing biotin: 8 μg/mL, histidine: 0.2 μg/mL, glucose: 8 mg/mL). Regarding TA 100 line, 120 mL of Exposure media was added to 3.16 mL of the bacterial suspension to prepare a test bacterial suspension. 12 μL of a solution of a test substance in DMSO (diluted eight times in a common ratio of 2 from the maximum dose of 50 mg/mL); 12 μL of DMSO as a negative control; 50 μg/mL 4-nitroquinoline-1-oxide solution in DMSO for TA98 line or 0.25 μg/mL 2-(2-furyl)-3-(5-nitro-2-furyl)acrylamide solution in DMSO as a positive control for TA 100 line in the case of a non-metabolism-activation condition; 12 μL of 40 μg/mL 2-aminoanthracene solution in DMSO for TA98 line or 20 μg/mL of 2-aminoanthracene solution in DMSO for TA100 line in the case of a metabolism-activation condition; were each mixed with 588 μL of the test bacterial suspension (in the case of a metabolism activation condition, a mixed solution of 498 μL of the test bacterial suspension and 90 μL S9 mix) and then cultured at 37° C. at 90 minutes with shaking. 460 μL of the bacterial suspension to which a test substance was exposed was mixed with 230 μL of Indicator media (a Micro F buffer solution containing 8 μg/mL biotin, 0.2 μg/mL histidine, 8 mg/mL glucose, and 37.5 μg/mL bromocresol purple). 50 μL thereof was dispensed to microplate 48 wells/dose and then statically cultured at 37° C. for 3 days. In a well containing bacteria which obtained proliferation potency by mutation of the amino acid (histidine) synthetase gene, the change of pH caused the color change from purple to yellow. Thus, in 48 wells per dose, the number of the bacteria-proliferation wells in which the color changed to yellow was counted, compared with a group of negative controls, and then evaluated. When the mutagenicity is negative, the compound is shown as (−). When positive, the compound is shown as (+).

PI-3 kinase γ [4] = biological target: T1, PI-3 kinase γ; experiment: PI3Kγ inhibitory activity (Ki value), HTRF; format: biochemical; details: Ki=IC50/(1+10 μM ATP/Km)
Method: The PI3Kγ inhibitory activity (Ki value) of a compound was evaluated according to the following procedure:
5 μL of a compound solution containing 10% DMSO and 200 μmol/L of a compound was changed to 5 μL of a compound solution containing 10% DMSO and either 200, 64, 20, 6.4, 2, 0.64, or 0.20 μmol/L of the compound (optionally, this is diluted to a lower concentration). Using a method similar to the method for measuring PI3Kγ inhibitory activity, inhibition ratios were measured in the presence of the compound at 50, 16, 5, 1.6, 0.5, 0.16, and 0.05 μmol/L (optionally, a lower concentration). Then an IC50 value was calculated by a logistic approximation method or the linear regression method using two concentrations that across 50% inhibition. Separately, the ATP concentration in the reaction solution (40 μmol/L ATP, 10 mmol/L MgCl2, 5 mmol/L DTT) at the time of the start of a reaction in the absence of the compound was changed to 80, 40, 20, 10, 5, 2.5, 1.25, or 0.625 μmol/L. Then, HTRF ratios were measured by a similar method. The value obtained by subtracting the HTRF ratio at each ATP concentration from the HTRF ratio in the absence of PI-3 kinase γ was defined as the value obtained by multiplying reaction rate (v) at each ATP concentration with a constant. The Michaelis-Menten constant Km was then calculated by the Lineweaver-Burk plot method. The Ki value of a compound was calculated by the following formula.
Ki=IC50 value/(1+10 μM (test ATP concentration)/Km (μM))

Metabolic stability test = format: in vitro ADME; details: human liver microsome 0.5 mg protein/mL, 1 mmol/L NADPH, 37° C.
Method in brief: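 Pooled human liver microsomes (0.5 mg protein/mL) incubated with compound and 1 mmol/L NADPH at 37° C. in pH 7.4 Tris buffer for 0 or 30 min. Parent quantified by LC/MS/MS after methanol/acetonitrile quench; value is % remaining at 30 min versus 0 min.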
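Wherever percentage of the test compound remained after reacting for 30 minutes is given: 100% equals the compound amount at 0 min reaction.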

T1 sequence (P48736 whole entry): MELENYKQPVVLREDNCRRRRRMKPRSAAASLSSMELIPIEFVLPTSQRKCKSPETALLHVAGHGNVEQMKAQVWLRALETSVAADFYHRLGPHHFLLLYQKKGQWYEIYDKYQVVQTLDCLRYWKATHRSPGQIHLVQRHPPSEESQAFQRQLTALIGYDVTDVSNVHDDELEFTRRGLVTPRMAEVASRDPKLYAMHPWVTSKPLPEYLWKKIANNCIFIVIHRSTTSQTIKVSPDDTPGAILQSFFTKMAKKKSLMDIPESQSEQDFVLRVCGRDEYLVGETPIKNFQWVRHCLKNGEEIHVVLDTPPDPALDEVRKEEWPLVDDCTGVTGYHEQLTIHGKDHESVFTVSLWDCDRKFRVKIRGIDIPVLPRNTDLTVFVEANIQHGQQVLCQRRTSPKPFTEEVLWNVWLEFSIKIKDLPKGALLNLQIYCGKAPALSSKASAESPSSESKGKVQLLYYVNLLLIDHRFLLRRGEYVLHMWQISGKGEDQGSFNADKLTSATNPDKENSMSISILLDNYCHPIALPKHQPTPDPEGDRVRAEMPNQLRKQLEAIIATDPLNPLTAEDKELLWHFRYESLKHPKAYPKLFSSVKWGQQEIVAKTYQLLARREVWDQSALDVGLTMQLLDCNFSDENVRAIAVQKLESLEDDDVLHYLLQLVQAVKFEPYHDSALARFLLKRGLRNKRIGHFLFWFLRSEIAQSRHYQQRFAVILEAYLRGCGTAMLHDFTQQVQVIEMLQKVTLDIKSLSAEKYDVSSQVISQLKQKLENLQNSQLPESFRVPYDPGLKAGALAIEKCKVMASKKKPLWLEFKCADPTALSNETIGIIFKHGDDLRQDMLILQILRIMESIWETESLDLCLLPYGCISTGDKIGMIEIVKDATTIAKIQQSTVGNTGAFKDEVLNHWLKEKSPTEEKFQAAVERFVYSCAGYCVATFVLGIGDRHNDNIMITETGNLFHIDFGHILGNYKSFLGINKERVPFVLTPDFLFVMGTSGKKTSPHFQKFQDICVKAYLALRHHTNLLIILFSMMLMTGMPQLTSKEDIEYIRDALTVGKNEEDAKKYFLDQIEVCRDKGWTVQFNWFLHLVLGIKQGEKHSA

Compound	inhibition at 50 µM (PI-3 kinase γ [1]; PI3Kγ)	solubility at 16 h (Solubility test)	inhibition ratio for the maximum tail current (IKr) [2]	inhibition at 10 µM (PI-3 kinase γ [1]; compound at 10 μmol/L)	mutagenicity (FAT test) [3]	also measured
CNC(=O)Nc1cc2n(n1)CCN2c1cc(Br)cc(C(=O)N2CCNCC2)c1 [Compound I-185]	≥ 95%	> 50 µM	8.3%			IC50 (CYP1A2): > 20 µM; IC50 (CYP2C9): > 20 µM; IC50 (CYP2C19): > 20 µM; IC50 (CYP2D6): > 20 µM; IC50 (CYP3A4): > 20 µM
CC(C)Oc1cc(C(=O)Nc2cc3n(n2)CCN3c2ccc3c(c2)CCN(C)C3=O)on1 [Compound I-403]				≥ 95%	(−)	
CNC(=O)Nc1cc2n(n1)CCN2c1cc(Br)cc(C(=O)N2CCCC2)c1 [Compound I-181]	≥ 95%				(−)	
CNC(=O)Nc1nc2c(s1)CN(c1nc(OC)nc(OC)n1)CC2 [Compound I-327]				84%	(−)	
COc1cc(N2CCc3nc(NC(=O)Nc4ccccc4)sc3C2)nc(OC)n1 [Compound I-203]	95%				(−)	
COc1cc(N2CCc3nc(NC(=O)NCCC(=O)O)sc3C2)nc(OC)n1.Cl.Cl [Compound I-262]		> 50 µM	1.6%			inhibition at 10 µM (PI-3 kinase γ [1]; PI3Kγ, compound at 10 μM): ≥ 95%; Ki (PI-3 kinase γ [4]): 0.047 µM; percentage of the test compound remained after reacting for 30 minutes (Metabolic stability test): 92.8%

— patent publication US20110230472A1, “RING-FUSED AZOLE DERIVATIVE HAVING PI3K-INHIBITING ACTIVITY” (Shionogi & Co., Ltd., priority 2008, published 2011)
